# In ChEMBL document CHEMBL1152471 (2008):
# Key:
# Format in all cases: functional
# [1] = test system: Mycobacterium tuberculosis; assay: Antituberculosis activity against linezolid-resistant Mycobacterium tuberculosis having mutation in 23S rRNA with identical G to T base pair exchange at position 2061
# [2] = test system: Mycobacterium tuberculosis; assay: Antituberculosis activity against linezolid-resistant Mycobacterium tuberculosis having mutation in 23S rRNA with alteration in domain V
# [3] = test system: Mycobacterium tuberculosis; assay: Antituberculosis activity against linezolid-resistant Mycobacterium tuberculosis having mutation in 23S rRNA with G to T base pair exchange at position 2576
# [4] = test system: Mycobacterium tuberculosis; assay: Antituberculosis activity against linezolid-resistant Mycobacterium tuberculosis without mutation in 23S rRNA
# [5] = test system: Mycobacterium tuberculosis; assay: Antituberculosis activity against linezolid-resistant Mycobacterium tuberculosis by bactec 460 TB method
# [6] = test system: Mycobacterium tuberculosis; assay: Antituberculosis activity against linezolid-resistant Mycobacterium tuberculosis by bactec MGIT 960 method
smiles,measurement,setting,value
CC(=O)NC[C@H]1CN(c2ccc(N3CCOCC3)c(F)c2)C(=O)O1 [LINEZOLID],MIC,[1],32 µg/mL
same,MIC,[2],>=64 ug ml-1
same,MIC,[3],16 µg/mL
same,MIC,[4],4 µg/mL
same,MIC,[5],≤ 1 µg/mL
same,MIC,[6],≤ 1 µg/mL
